Experimental data: patent publication US20260256794A1, “Oral Dynamine Formulations and Methods Therefor” (Ortho-Nutra, LLC, priority 2023, published 2026)

How the values were obtained:
[1] = system: subjects; assay: VAS-Sustained Energy; format: in vivo, human; design: VAS-Sustained Energy rating, Mean / VAS-Sustained Energy changes from baseline, Mean Difference ± SE / VAS-Sustained Energy Δ, Mean Difference ± SE / VAS-Sustained Energy area under the curve, Mean Difference ± SE / VAS-Sustained Energy area under the curve, Mean: scale not given here; conditions: for VAS-Sustained Energy Δ, effect size d / VAS-Sustained Energy Δ from 0 min, Mean / VAS-Sustained Energy Δ, Mean Difference ± SE: females; for VAS-Sustained Energy Δ, effect size d: vs placebo; for VAS-Sustained Energy Δ, Mean Difference ± SE: B vs A (placebo)
Experimental: (§1) The inventors have discovered various compositions and methods of improving various indices of neurological and neuroenergetic functions by administering 100 mg (once daily) dosages of DYNAMINE™ (dosage between 1.0 and 1.4 mg/kg) as described in the following:
(§2) All neuroenergetic tests as listed below were performed and data were collected after 0 and 4 days of assigned supplements (with acute effects also measured at day 4 over 180 minutes):
(§3) All VAS Measurement (Energy, Sustained Energy, Mental Stamina, Ability to Focus, Ability to Concentrate, Motivation to Accomplish Difficult Tasks, Drive, Vigor, Level of Positive Outlook, Mood, Feelings of Well-Being, Tolerate Stress); Day 0: Two tests were completed. The average of both scores was computed and this value was used in all statistical analysis. Day 4 (0 minutes after ingesting dose #4): Two tests were completed. The average of both scores was computed and this value was used in all statistical analysis. Day 4 (60, 120, and 180 minutes after ingesting dose #4): One test was completed at each time point.
(§4) Neuroenergic parameters are inherently subjective, nevertheless significant in human behavior and well-being. To allow for a standardization among different subjects, the following experiments were performed using a visual analog scale using anchor statements (lowest possible/highest possible) in which subjects were asked to rate their subjective experience with respect to the specific neuroenergic parameters tested.
VAS-Sustained Energy: In this subjective test, subjects were asked to rate their personal level of energy on a VAS scale using the prompt of “My level of sustained energy right now is . . . ” (with rating lowest possible to highest possible)”. Results were collected as noted above and Table 6 provides exemplary results for Day 0 versus Day 4 ratings, whereas Table 7 provides exemplary acute results measured at Day 4 over a duration of 180 minutes.

[2] = system: subjects; assay: VAS-Motivation; format: in vivo, human; design: VAS-Motivation rating, Mean / VAS-Motivation changes from baseline, Mean Difference ± SE / VAS-Motivation area under the curve, Mean Difference ± SE / VAS-Motivation area under the curve, Mean: scale not given here
Experimental: as §1, §2, §3, §4
VAS-Motivation: In this subjective test, subjects were asked to rate their personal level of energy on a VAS scale using the prompt of “My motivation to accomplish difficult tasks right now is . . . ” (with rating lowest possible to highest possible)”. Results were collected as noted above and Table 19 provides exemplary results for Day 0 versus Day 4 ratings, whereas Table 20 provides exemplary acute results measured at Day 4 over a duration of 180 minutes.

[3] = system: subjects; assay: VAS-Vigor; format: in vivo, human; design: VAS-Vigor rating, Mean / VAS-Vigor changes from baseline, Mean Difference ± SE / VAS-Vigor area under the curve, Mean Difference ± SE / VAS-Vigor area under the curve, Mean: scale not given here
Experimental: as §1, §2, §3, §4
VAS-Vigor: In this subjective test, subjects were asked to rate their personal level of energy on a VAS scale using the prompt of “My level of vigor right now is . . . ” (with rating lowest possible to highest possible)”. Results were collected as noted above and Table 25 provides exemplary results for Day 0 versus Day 4 ratings, whereas Table 26 provides exemplary acute results measured at Day 4 over a duration of 180 minutes. […] Of note, it should be appreciated that drive is also often a function of dopamine activation. As above, is it therefore contemplated that methylliberine may also have an agonist effect on dopamine receptors or signaling.

[4] = system: subjects; assay: VAS-Positivity; format: in vivo, human; design: VAS-Positivity rating, Mean: scale not given here
Experimental: as §1, §2, §3, §4
VAS-Positivity: In this subjective test, subjects were asked to rate their personal level of energy on a VAS scale using the prompt of “My level of positive outlook right now is . . . ” (with rating lowest possible to highest possible)”. Results were collected as noted above and Table 28 provides exemplary results for Day 0 versus Day 4 ratings, whereas Table 29 provides exemplary acute results measured at Day 4 over a duration of 180 minutes.

[5] = cited from earlier work
[6] = 100 mg once daily, Day 4, 0-180 min
[7] = 100 mg once daily, Day 4, 0-180 min, vs Group A (placebo)
[8] = 100 mg once daily, Day 4, 0 min after dose #4
[9] = 100 mg once daily, Day 4, 60 min-0 min, vs Group A (placebo)
[10] = 100 mg once daily, Day 4, 60 min after dose #4
[11] = 100 mg once daily, Day 4, 120 min-0 min, vs Group A (placebo)
[12] = 100 mg once daily, Day 4, 120 min after dose #4
[13] = 100 mg once daily, Day 4, 180 min-0 min, vs Group A (placebo)
[14] = 100 mg once daily, Day 4, 180 min after dose #4
[15] = 100 mg once daily, Day 4, Δ @ 60 min
[16] = 100 mg once daily, Day 4, Δ @ 120 min
[17] = 100 mg once daily, Day 4, Δ @ 180 min

In the case of `COc1nc2c(c(=O)n1C)n(C)c(=O)n2C` [methylliberine, 2-methoxy-1,7,9-trimethylpurine-6,8-dione], the “VAS-Sustained Energy area under the curve, Mean” value [1, 6] is reported as 1073, the “VAS-Sustained Energy area under the curve, Mean Difference ± SE” value [1, 7] is reported as 45.2 ± 41.7 and the “VAS-Sustained Energy area under the curve, effect size d” value [1, 7] is reported as −0.13. For the same compound, the “VAS-Sustained Energy rating, Mean” value [1, 8] was 5.7, the “VAS-Sustained Energy changes from baseline, Mean Difference ± SE” value [1, 9] was 0.22 ± 0.22 and the “VAS-Sustained Energy changes from baseline, effect size d” value [1, 9] was 0.27. For the same compound, the “VAS-Sustained Energy rating, Mean” value [1, 10] was 6.2, the “VAS-Sustained Energy changes from baseline, Mean Difference ± SE” value [1, 11] was −0.11 ± 0.25 and the “VAS-Sustained Energy changes from baseline, effect size d” value [1, 11] was −0.11. For the same compound, the “VAS-Sustained Energy rating, Mean” value [1, 12] was 6.3, the “VAS-Sustained Energy changes from baseline, Mean Difference ± SE” value [1, 13] was 0.24 ± 0.23 and the “VAS-Sustained Energy changes from baseline, effect size d” value [1, 13] was 0.24. For the same compound, the “VAS-Sustained Energy rating, Mean” value [1, 14] was 6.5, the “VAS-Sustained Energy rating, Mean” value ([1]; Day 0 (before supplementation)) was 5.6 and the “VAS-Sustained Energy Δ, effect size d” value ([1]; 100 mg once daily, Day 4, 60 min) was 0.86. The “VAS-Sustained Energy Δ, effect size d” value ([1]; 100 mg once daily, Day 4, 120 min) was 0.62, the “VAS-Sustained Energy Δ, effect size d” value ([1]; 100 mg once daily, Day 4, 120 min, listed as B) was 0.03 and the “VAS-Sustained Energy Δ, effect size d” value ([1]; 100 mg once daily, Day 4, 180 min) was 0.62. The “VAS-Sustained Energy Δ from 0 min, Mean” value [1, 15] was 0.85, the “VAS-Sustained Energy Δ, Mean Difference ± SE” value [1, 15] was 0.74 ± 0.29 and the “VAS-Sustained Energy Δ from 0 min, Mean” value [1, 16] was 0.88. For the same compound, the “VAS-Sustained Energy Δ, Mean Difference ± SE” value [1, 16] was 0.02 ± 0.35, the “VAS-Sustained Energy Δ from 0 min, Mean” value [1, 17] was 1.28 and the “VAS-Sustained Energy Δ, Mean Difference ± SE” value [1, 17] was 0.72 ± 0.31. The “VAS-Motivation area under the curve, Mean” value [2, 6] was 1113, the “VAS-Motivation area under the curve, Mean Difference ± SE” value [2, 7] was 36.8 ± 37.4 and the “VAS-Motivation area under the curve, effect size d” value [2, 7] was 0.11. The “VAS-Motivation rating, Mean” value [2, 8] was 5.7, the “VAS-Motivation changes from baseline, Mean Difference ± SE” value [2, 9] was −0.07 ± 0.27 and the “VAS-Motivation changes from baseline, effect size d” value [2, 9] was −0.08. The “VAS-Motivation rating, Mean” value [2, 10] was 6.2, the “VAS-Motivation changes from baseline, Mean Difference ± SE” value [2, 11] was −0.25 ± 0.27 and the “VAS-Motivation changes from baseline, effect size d” value [2, 11] was −0.25. For the same compound, the “VAS-Motivation rating, Mean” value [2, 12] was 6.2, the “VAS-Motivation changes from baseline, Mean Difference ± SE” value [2, 13] was 0.53 ± 0.27 and the “VAS-Motivation changes from baseline, effect size d” value [2, 13] was 0.50. The “VAS-Motivation rating, Mean” value [2, 14] was 6.6, the “VAS-Motivation rating, Mean” value ([2]; Day 0 (before supplementation)) was 5.8 and the “VAS-Vigor area under the curve, Mean” value [3, 6] was 1112. The “VAS-Vigor area under the curve, Mean Difference ± SE” value [3, 7] was 21.8 ± 41.5, the “VAS-Vigor area under the curve, effect size d” value [3, 7] was 0.07 and the “VAS-Vigor rating, Mean” value [3, 8] was 5.8. For the same compound, the “VAS-Vigor changes from baseline, Mean Difference ± SE” value [3, 9] was 0.02 ± 0.23, the “VAS-Vigor changes from baseline, effect size d” value [3, 9] was 0.02 and the “VAS-Vigor rating, Mean” value [3, 10] was 6.2. For the same compound, the “VAS-Vigor changes from baseline, Mean Difference ± SE” value [3, 11] was −0.12 ± 0.25, the “VAS-Vigor changes from baseline, effect size d” value [3, 11] was 0.13 and the “VAS-Vigor rating, Mean” value [3, 12] was 6.3. The “VAS-Vigor changes from baseline, Mean Difference ± SE” value [3, 13] was 0.43 ± 0.28, the “VAS-Vigor changes from baseline, effect size d” value [3, 13] was −0.41 and the “VAS-Vigor rating, Mean” value [3, 14] was 6.4. The “VAS-Vigor rating, Mean” value ([3]; Day 0 (before supplementation)) was 5.8, the “VAS-Positivity area under the curve, Mean” value [4, 6] was 1235 and the “VAS-Positivity area under the curve, Mean Difference ± SE” value [4, 7] was 15.0 ± 43.0. For the same compound, the “VAS-Positivity area under the curve, effect size d” value [4, 7] was 0.05, the “VAS-Positivity rating, Mean” value [4, 8] was 6.4 and the “VAS-Positivity changes from baseline, Mean Difference ± SE” value [4, 9] was 0.07 ± 0.19. For the same compound, the “VAS-Positivity changes from baseline, effect size d” value [4, 9] was 0.08, the “VAS-Positivity rating, Mean” value [4, 10] was 6.8 and the “VAS-Positivity changes from baseline, Mean Difference ± SE” value [4, 11] was −0.05 ± 0.25. For the same compound, the “VAS-Positivity changes from baseline, effect size d” value [4, 11] was 0.05, the “VAS-Positivity rating, Mean” value [4, 12] was 7.0 and the “VAS-Positivity changes from baseline, Mean Difference ± SE” value [4, 13] was 0.46 ± 0.27. For the same compound, the “VAS-Positivity changes from baseline, effect size d” value [4, 13] was 0.43, the “VAS-Positivity rating, Mean” value [4, 14] was 7.0 and the “VAS-Positivity rating, Mean” value ([4]; Day 0 (before supplementation)) was 6.6. For the same compound, the “effect on pharmacokinetics of caffeine” value ([5]; methylliberine 100 mg administered in combination with caffeine 150 mg) was “will alter pharmacokinetic effects of caffeine” and the half-life ([5]; oral, 25 mg and 100 mg, healthy subjects) was 1 to 1.4 h.
